Source: BigSolDB 2.1

In the case of CCCOC(=O)c1cc(O)c(O)c(O)c1, the solubility (mole fraction) (in acetone, 293.15 K) is reported as 0.291, the solubility (mole fraction) (in acetone, 298.15 K) is reported as 0.311 and the solubility (mole fraction) (in acetone, 303.15 K) is reported as 0.33. The solubility (mole fraction) (in acetone, 308.15 K) was 0.35, the solubility (mole fraction) (in acetone, 313.15 K) was 0.369 and the solubility (mole fraction) (in acetone, 318.15 K) was 0.387. It also gave a solubility (mole fraction) (in acetone, 323.15 K) of 0.404, a solubility (mole fraction) (in acetone, 328.15 K) of 0.412 and a solubility (mole fraction) (in acetone, 333.15 K) of 0.419. The solubility (mole fraction) (in ethanol, 293.15 K) was 0.182, the solubility (mole fraction) (in ethanol, 298.15 K) was 0.201 and the solubility (mole fraction) (in ethanol, 303.15 K) was 0.222. For the same compound, the solubility (mole fraction) (in ethanol, 308.15 K) was 0.244, the solubility (mole fraction) (in ethanol, 313.15 K) was 0.266 and the solubility (mole fraction) (in ethanol, 318.15 K) was 0.288. It also gave a solubility (mole fraction) (in ethanol, 323.15 K) of 0.311, a solubility (mole fraction) (in ethanol, 328.15 K) of 0.323 and a solubility (mole fraction) (in ethanol, 333.15 K) of 0.334. It also gave a solubility (mole fraction) (in ethyl acetate, 293.15 K) of 0.222, a solubility (mole fraction) (in ethyl acetate, 298.15 K) of 0.24 and a solubility (mole fraction) (in ethyl acetate, 303.15 K) of 0.258. It also gave a solubility (mole fraction) (in ethyl acetate, 308.15 K) of 0.276, a solubility (mole fraction) (in ethyl acetate, 313.15 K) of 0.295 and a solubility (mole fraction) (in ethyl acetate, 318.15 K) of 0.314. For the same compound, the solubility (mole fraction) (in ethyl acetate, 323.15 K) was 0.333, the solubility (mole fraction) (in ethyl acetate, 328.15 K) was 0.343 and the solubility (mole fraction) (in ethyl acetate, 333.15 K) was 0.353. For the same compound, the solubility (mole fraction) (in isobutanol, 293.15 K) was 0.189, the solubility (mole fraction) (in isobutanol, 298.15 K) was 0.209 and the solubility (mole fraction) (in isobutanol, 303.15 K) was 0.229. For the same compound, the solubility (mole fraction) (in isobutanol, 308.15 K) was 0.25, the solubility (mole fraction) (in isobutanol, 313.15 K) was 0.272 and the solubility (mole fraction) (in isobutanol, 318.15 K) was 0.295. It also gave a solubility (mole fraction) (in isobutanol, 323.15 K) of 0.319, a solubility (mole fraction) (in isobutanol, 328.15 K) of 0.331 and a solubility (mole fraction) (in isobutanol, 333.15 K) of 0.344. For the same compound, the solubility (mole fraction) (in isopropanol, 293.15 K) was 0.253, the solubility (mole fraction) (in isopropanol, 298.15 K) was 0.273 and the solubility (mole fraction) (in isopropanol, 303.15 K) was 0.293. The solubility (mole fraction) (in isopropanol, 308.15 K) was 0.314, the solubility (mole fraction) (in isopropanol, 313.15 K) was 0.336 and the solubility (mole fraction) (in isopropanol, 318.15 K) was 0.359. The solubility (mole fraction) (in isopropanol, 323.15 K) was 0.383, the solubility (mole fraction) (in isopropanol, 328.15 K) was 0.396 and the solubility (mole fraction) (in isopropanol, 333.15 K) was 0.409. It also gave a solubility (mole fraction) (in methanol, 293.15 K) of 0.226, a solubility (mole fraction) (in methanol, 298.15 K) of 0.242 and a solubility (mole fraction) (in methanol, 303.15 K) of 0.258. The solubility (mole fraction) (in methanol, 308.15 K) was 0.276, the solubility (mole fraction) (in methanol, 313.15 K) was 0.295 and the solubility (mole fraction) (in methanol, 318.15 K) was 0.316. It also gave a solubility (mole fraction) (in methanol, 323.15 K) of 0.339, a solubility (mole fraction) (in methanol, 328.15 K) of 0.351 and a solubility (mole fraction) (in methanol, 333.15 K) of 0.363. It also gave a solubility (mole fraction) (in methyl acetate, 293.15 K) of 0.244, a solubility (mole fraction) (in methyl acetate, 298.15 K) of 0.264 and a solubility (mole fraction) (in methyl acetate, 303.15 K) of 0.285. It also gave a solubility (mole fraction) (in methyl acetate, 308.15 K) of 0.306, a solubility (mole fraction) (in methyl acetate, 313.15 K) of 0.329 and a solubility (mole fraction) (in methyl acetate, 318.15 K) of 0.351. It also gave a solubility (mole fraction) (in methyl acetate, 323.15 K) of 0.375, a solubility (mole fraction) (in methyl acetate, 328.15 K) of 0.39 and a solubility (mole fraction) (in methyl acetate, 333.15 K) of 0.402. It also gave a solubility (mole fraction) (in n-butanol, 293.15 K) of 0.243, a solubility (mole fraction) (in n-butanol, 298.15 K) of 0.259 and a solubility (mole fraction) (in n-butanol, 303.15 K) of 0.275. The solubility (mole fraction) (in n-butanol, 308.15 K) was 0.293, the solubility (mole fraction) (in n-butanol, 313.15 K) was 0.312 and the solubility (mole fraction) (in n-butanol, 318.15 K) was 0.333. It also gave a solubility (mole fraction) (in n-butanol, 323.15 K) of 0.356, a solubility (mole fraction) (in n-butanol, 328.15 K) of 0.368 and a solubility (mole fraction) (in n-butanol, 333.15 K) of 0.381. It also gave a solubility (mole fraction) (in n-propanol, 293.15 K) of 0.264, a solubility (mole fraction) (in n-propanol, 298.15 K) of 0.283 and a solubility (mole fraction) (in n-propanol, 303.15 K) of 0.302. For the same compound, the solubility (mole fraction) (in n-propanol, 308.15 K) was 0.321, the solubility (mole fraction) (in n-propanol, 313.15 K) was 0.34 and the solubility (mole fraction) (in n-propanol, 318.15 K) was 0.36. For the same compound, the solubility (mole fraction) (in n-propanol, 323.15 K) was 0.382, the solubility (mole fraction) (in n-propanol, 328.15 K) was 0.394 and the solubility (mole fraction) (in n-propanol, 333.15 K) was 0.406.
